{"source": "patent US20080044356A1", "about": "“Assemblies of Oligomeric Amyloid Beta Protein and Uses Thereof” (Regents of the University of Minnesota, priority 2004, published 2008)", "origin": "cited, not measured here", "key": {"rats [1]": {"system": "rats"}, "rats [2]": {"system": "rats", "remark": "listed apart in the source"}, "[3]": {"system": "Alzheimer's disease (AD) patients"}, "[4]": {"conditions": "animals treated in utero (congenital hypothyroidism), versus controls"}, "[5]": {"conditions": "congenitally hypothyroid rats with replacement treatment"}}, "note": "Read-outs that look alike come from different tables or passages of the source."}
{"molecule": "CN1[C@@H]2CC[C@H]1C[C@@H](OC(=O)C(CO)c1ccccc1)C2", "note": "(stereo partly shown) [atropine]", "values": [{"measurement": "switching errors", "setting": "rats [1]; 1.0 mg/kg IP", "value": "increases switching errors significantly"}, {"measurement": "ALCR Cognitive Effect", "setting": "rats [1]; route IP", "value": "Increased errors"}, {"measurement": "ALCR Running Response Rate", "setting": "rats [1]; route IP", "value": "No effect"}, {"measurement": "ALCR Running Response Rate", "setting": "rats [1]; route IP, 1 mg/kg", "value": "Reduced"}]}
{"molecule": "CC(C)Cc1ccc(C(C)C(=O)O)cc1", "note": "(stereo not shown) [ibuprofen]", "values": [{"measurement": "effect on Aβ-induced ALCR performance decrements", "setting": "rats [1]; after IH injection of pre-aggregated Aβ", "value": "mitigated these effects"}, {"measurement": "ALCR Cognitive Effect", "setting": "rats [1]; route PO", "value": "Normalized errors"}, {"measurement": "ALCR Running Response Rate", "setting": "rats [1]; route PO", "value": "No effect"}]}
{"molecule": "Cn1cc[nH]c1=S", "note": "[methimzole, methimazole]", "values": [{"measurement": "learning to criterion in the ALCR task", "setting": "rats [1]; [4]", "value": "significantly slower learning to criterion"}, {"measurement": "ALCR Cognitive Effect", "setting": "rats [1]; route PO", "value": "Slow learning"}, {"measurement": "ALCR Running Response Rate", "setting": "rats [1]; route PO", "value": "No effect"}, {"measurement": "motivation for food in the PR task", "setting": "rats [2]; [4]", "value": "not different from that of controls"}, {"measurement": "Direct test of Motivation", "setting": "rats [2]; route PO, FOA, PR assessments", "value": "No effect"}]}
{"molecule": "N[C@@H](Cc1cc(I)c(Oc2cc(I)c(O)c(I)c2)c(I)c1)C(=O)O", "note": "[thyroxin, thyroxine]", "values": [{"measurement": "learning to criterion and error rates in the ALCR task", "setting": "rats [1]; [5]", "value": "normal learning to criterion and error rates"}, {"measurement": "motivation for food in the PR task", "setting": "rats [2]; [5]", "value": "performed equally well"}]}
{"molecule": "AN-1792: beta amyloid peptide 1-42, used for active immunization", "values": [{"measurement": "adverse reaction to active immunization", "setting": "[3]; human, in vivo", "value": "risk of encephalitis"}, {"measurement": "cognitive function", "setting": "[3]; immunization, subset of AD patients", "value": "encouraging preliminary reports"}]}
